In US7179943B2, “Bicyclic derivatives that modulate voltage-gated potassium channels and methods of use thereof” (Wyeth, priority 2004, dated 2007):
Structures can show the parent of a compound that is named as a salt.

Legend:
[1] = molecular target: T1, human Kv1.1/Kvβ1 potassium ion channel complex (Homo sapiens, UniProt Q09470); experiment: Xenopus oocytes current assay (inhibition of inactivation, voltage clamp); format: cell-based; conditions: Xenopus oocytes expressing hKv1.1/hKvβ1, relative to control bath solution; for activation at 50 µM: read-out: Percent Increase in Steady State Current Of human Kv1.1/Kvβ1 @ a concentration of 50 μM
T1 construct: expressed in transfected cells; host or cells: Xenopus oocytes injected with cRNA
T1 sequence (Q09470 whole entry, one chain of several): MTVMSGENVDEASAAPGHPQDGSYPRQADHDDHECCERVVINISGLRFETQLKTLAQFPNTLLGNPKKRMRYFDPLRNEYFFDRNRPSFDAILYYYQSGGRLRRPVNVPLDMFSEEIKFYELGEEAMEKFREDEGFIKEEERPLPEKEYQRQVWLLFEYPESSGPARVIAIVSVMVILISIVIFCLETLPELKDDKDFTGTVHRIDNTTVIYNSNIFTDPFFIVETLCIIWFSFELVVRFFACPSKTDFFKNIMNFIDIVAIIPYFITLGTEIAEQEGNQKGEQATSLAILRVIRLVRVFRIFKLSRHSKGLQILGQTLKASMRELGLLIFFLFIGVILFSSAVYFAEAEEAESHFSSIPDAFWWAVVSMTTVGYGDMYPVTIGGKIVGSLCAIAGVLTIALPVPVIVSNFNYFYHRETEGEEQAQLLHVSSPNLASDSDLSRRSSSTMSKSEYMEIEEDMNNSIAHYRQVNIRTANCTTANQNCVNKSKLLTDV
Method: The compounds of formula I were examined for their ability to inhibit the inactivation of the human Kv1.1/Kvβ1 potassium ion channel complex in vitro using electrophysiological current recordings on inactivating Kv1.1/Kvβ1 channels expressed in Xenopus oocytes. Xenopus oocytes were harvested from frogs under general anesthesia using aseptic techniques. Oocytes were treated with 2 mg/ml collagenase for 1–1.5 hr, defolliculated, and injected with 40 nL cRNA (a mixture of hky1.1 and hKvβ1) produced using standard molecular biological techniques (Sambrook, et al., 1989, Molecular Cloning: A Laboratory Manual). The concentration of hKv1.1/hKvp1 cRNA varies, but was generally about 50 ng/μL hKv1.1 and […] hKβ1.
Currents were recorded using standard voltage clamp amplifiers at room temperature. Recordings were performed in the bath solution “ND-96” containing 96 mM NaCl, 2 mM KCl, 1 mm CaCl2, 1 mM MgCl2, 10 mM HEPES and […] Gentamycin (pH=7.6). The pipette (electrode) solution generally consisted of […]. Electrodes were made from WPI TW150F-4 borosilicate glass (or equivalent) and typically had resistances of 0.5–1.5 Mohms. The standard current-voltage (IV) pulse protocol consisted of voltage steps from −60 mV to +50 mV, in 10 mV increments for 200 ms, at a frequency of one IV set per 2 minutes. Data were digitized and analyzed by standard software packages.
Solutions of the test compounds consisting of test compounds dissolved in bath solution were applied by bath perfusion using gravity or pump-driven flow. A minimum of 2 mL (10 times the bath volume) over 3 minutes were flowed for each compound concentration tested. Data were averaged across at least 3 cells tested for each concentration.
Test compounds were examined for their ability to inhibit the inactivation of the steady state portion of the IV curve.

SMILES	melting point	activation at 50 µM [1]	Percent Increase in Steady State Current Of human Kv1.1/Kvβ1 @ a concentration of 50 μM [1]
O=C(Nc1ccc(C(F)(F)F)cc1)C1C(=O)C2CCC(C2)C1=O (stereo not shown) (as salt: sodium) [Example 26, N-[4-(trifluoromethyl)phenyl]-2,4-dioxobicyclo[3.2.1]octane-3-carboxamide]	250 to 260 °C		
CC1(C)C2CC1C(=O)C(C(=O)Nc1ccc(C(F)(F)F)cc1)C2=O (stereo not shown) (as salt: sodium) [Example 28, 6,6-Dimethyl-2,4-dioxo-N-[4-(trifluoromethyl)phenyl]bicyclo[3.1.1]heptane-3-carboxamide]	> 230 °C		
CC1(C)C2CC1C(=O)C(C(=O)Nc1cccc(C(F)(F)F)c1)C2=O (stereo not shown) (as salt: sodium) [Example 29, 6,6-Dimethyl-2,4-dioxo-N-[3-(trifluoromethyl)phenyl]bicyclo[3.1.1]heptane-3-carboxamide]	> 230 °C		
CC1(C)C2CC1C(=O)C(C(=O)Nc1ccc(F)c(Cl)c1)C2=O (stereo not shown) (as salt: sodium) [Example 30, 6,6-Dimethyl-2,4-dioxo-N-(3-chloro-4-fluorophenyl)bicyclo[3.1.1]heptane-3-carboxamide]	> 230 °C		
CC1(C)C2CC1C(=O)C(C(=O)Nc1ccc(F)c(C(F)(F)F)c1)C2=O (stereo not shown) (as salt: sodium) [Example 31, 6,6-Dimethyl-2,4-dioxo-N-[4-fluoro-3 (trifluoromethyl)phenyl]bicyclo[3.1.1]heptane-3-carboxamide]	> 230 °C		
CC1(C)C2CC1C(=O)C(C(=O)Nc1ccc(Cl)c(Cl)c1)C2=O (stereo not shown) (as salt: sodium) [Example 32, 6,6-Dimethyl-2,4-dioxo-N-(3,4-dichlorophenyl)bicyclo[3.1.1]heptane-3-carboxamide]	> 230 °C		
CC1(C)C2CC1C(=O)C(C(=O)Nc1cc(Cl)cc(Cl)c1)C2=O (stereo not shown) (as salt: sodium) [Example 33, 6,6-Dimethyl-2,4-dioxo-N-(3,5-dichlorophenyl)bicyclo[3.1.1]heptane-3-carboxamide]	> 230 °C		
CC1(C)C2CC1C(=O)C(C(=O)Nc1ccc(F)cc1)C2=O (stereo not shown) (as salt: sodium) [Example 34, 6,6-Dimethyl-2,4-dioxo-N-(4-fluorophenyl)bicyclo[3.1.1]heptane-3-carboxamide]	> 230 °C		
CC1(C)C2CC1C(=O)C(C(=O)Nc1cccc(Cl)c1)C2=O (stereo not shown) (as salt: sodium) [Example 35, 6,6-Dimethyl-2,4-dioxo-N-(3-chlorophenyl)bicyclo[3.1.1]heptane-3-carboxamide]	> 230 °C		
CC1(C)C2CC1C(=O)C(C(=O)Nc1ccc(Cl)cc1)C2=O (stereo not shown) (as salt: sodium) [Example 36, 6,6-Dimethyl-2,4-dioxo-N-(4-chlorophenyl)bicyclo[3.1.1]heptane-3-carboxamide]	> 230 °C		
O=C(Nc1cc(C(F)(F)F)cc(C(F)(F)F)c1)C1C(=O)C2CCC(CC2)C1=O (stereo not shown) (as salt: sodium) [Example 37, N-[3,5-bis(trifluoromethyl)phenyl]-2,4-dioxobicyclo[3.2.2]nonane-3-carboxamide]	286 to 288 °C		
CC1(C)C2CC[C@]1(C)C(=O)C(C(=O)Nc1cc(C(F)(F)F)cc(C(F)(F)F)c1)C2=O (stereo partly drawn) [Example 1, (1S)-N-[3,5-bis(trifluoromethyl)phenyl]-1,8,8-trimethyl-2,4-dioxobicyclo[3.2.1] octane-3-carboxamide]	68 to 72 °C	16%	
CC1(C)C2CC[C@]1(C)C(=O)C(C(=O)Nc1cc(Cl)cc(Cl)c1)C2=O (stereo partly drawn) [Example 3, (1S)-N-(3,5-dichlorophenyl)-1,8,8-trimethyl-2,4-dioxobicyclo[3.2.1]octane-3-carboxamide]	112 to 114 °C		
CC1(C)C2CC[C@]1(C)C(=O)C(C(=O)Nc1ccc(Cl)c(Cl)c1)C2=O (stereo partly drawn) [Example 4, (1S)-N-(3,4-dichlorophenyl)-1,8,8-trimethyl-2,4-dioxobicyclo[3.2.1]octane-3-carboxamide]	88 to 90 °C	11%	
CC1(C)C2CC[C@]1(C)C(=O)C(C(=O)Nc1cccc([N+](=O)[O-])c1)C2=O (stereo partly drawn) [Example 5, (1S)-N-(3-nitrophenyl)-1,8,8-trimethyl-2,4-dioxobicyclo[3.2.1]octane-3-carboxamide]	100 to 102 °C		
CC1(C)C2CC[C@]1(C)C(=O)C(C(=O)Nc1ccc([N+](=O)[O-])cc1)C2=O (stereo partly drawn) [Example 6, (1S)-N-(4-nitrophenyl)-1,8,8-trimethyl-2,4-dioxobicyclo[3.2.1]octane-3-carboxamide]	170 to 172 °C		
CC1(C)C2CC[C@]1(C)C(=O)C(C(=O)Nc1ccc(Cl)c(C(F)(F)F)c1)C2=O (stereo partly drawn) [Example 7, (1S)-N-[4-chloro-3-(trifluoromethyl)phenyl]-1,8,8-trimethyl-2,4-dioxobicyclo [3.2.1]octane-3-carboxamide]	118 to 120 °C		

SMILES	melting point	activation at 50 µM [1]	Percent Increase in Steady State Current Of human Kv1.1/Kvβ1 @ a concentration of 50 μM [1]
CC1(C)C2CC[C@]1(C)C(=O)C(C(=O)Nc1ccc(C(F)(F)F)cc1)C2=O (stereo partly drawn) [Example 8, (1S)-N-[4-(trifluoromethyl)phenyl]-1,8,8-trimethyl-2,4-dioxobicyclo[3.2.1] octane-3-carboxamide]	81 to 83 °C	53%	
CN(C)c1ccc(NC(=O)C2C(=O)C3CC[C@](C)(C2=O)C3(C)C)cc1 (stereo partly drawn) [Example 9, (1S)-N-[4-(dimethylamino)phenyl]-1,8,8-trimethyl-2,4-dioxobicyclo[3.2.1] octane-3-carboxamide]	93 to 95 °C	27%	
Cc1ccc(NC(=O)C2C(=O)C3CC[C@](C)(C2=O)C3(C)C)cc1 (stereo partly drawn) [Example 11, (1S)-N-[4-methylphenyl]-1,8,8-trimethyl-2,4-dioxobicyclo[3.2.1]octane-3-carboxamide]	80 to 82 °C		
CC1(C)C2CC[C@@]1(C)C(=O)C(C(=O)Nc1ccc(Cl)c(Cl)c1)C2=O (stereo partly drawn) [Example 14, (1R)-N-(3,4-dichlorophenyl)-1,8,8-trimethyl-2,4-dioxobicyclo[3.2.1]octane-3-carboxamide]	89 to 91 °C		
CC1(C)C2CC[C@@]1(C)C(=O)C(C(=O)Nc1cccc(C(F)(F)F)c1)C2=O (stereo partly drawn) [Example 17, (1R)-N-[3-(trifluoromethyl)phenyl]-1,8,8-trimethyl-2,4-dioxobicyclo[3.2.1] octane-3-carboxamide]	66 to 68 °C		
O=C(Nc1ccc(Cl)c(Cl)c1)C1C(=O)C2CCC(C2)C1=O (stereo not shown) [Example 24]			28%
CC1(C)C2CC1C(=O)C(C(=O)Nc1ccc(C(F)(F)F)cc1)C2=O (stereo not shown) [Example 28, 6,6-Dimethyl-2,4-dioxo-N-[4-(trifluoromethyl)phenyl]bicyclo[3.1.1]heptane-3-carboxamide]		190%	
CC1(C)C2CC1C(=O)C(C(=O)Nc1cccc(C(F)(F)F)c1)C2=O (stereo not shown) [Example 29, 6,6-Dimethyl-2,4-dioxo-N-[3-(trifluoromethyl)phenyl]bicyclo[3.1.1]heptane-3-carboxamide]		67%	
CC1(C)C2CC1C(=O)C(C(=O)Nc1ccc(F)c(Cl)c1)C2=O (stereo not shown) [Example 30, 6,6-Dimethyl-2,4-dioxo-N-(3-chloro-4-fluorophenyl)bicyclo[3.1.1]heptane-3-carboxamide]		124%	
CC1(C)C2CC1C(=O)C(C(=O)Nc1ccc(F)c(C(F)(F)F)c1)C2=O (stereo not shown) [Example 31, 6,6-Dimethyl-2,4-dioxo-N-[4-fluoro-3 (trifluoromethyl)phenyl]bicyclo[3.1.1]heptane-3-carboxamide]		282%	
CC1(C)C2CC1C(=O)C(C(=O)Nc1ccc(Cl)c(Cl)c1)C2=O (stereo not shown) [Example 32, 6,6-Dimethyl-2,4-dioxo-N-(3,4-dichlorophenyl)bicyclo[3.1.1]heptane-3-carboxamide]		311%	
CC1(C)C2CC1C(=O)C(C(=O)Nc1cc(Cl)cc(Cl)c1)C2=O (stereo not shown) [Example 33, 6,6-Dimethyl-2,4-dioxo-N-(3,5-dichlorophenyl)bicyclo[3.1.1]heptane-3-carboxamide]		326%	
CC1(C)C2CC1C(=O)C(C(=O)Nc1ccc(F)cc1)C2=O (stereo not shown) [Example 34, 6,6-Dimethyl-2,4-dioxo-N-(4-fluorophenyl)bicyclo[3.1.1]heptane-3-carboxamide]		94%	
CC1(C)C2CC1C(=O)C(C(=O)Nc1cccc(Cl)c1)C2=O (stereo not shown) [Example 35, 6,6-Dimethyl-2,4-dioxo-N-(3-chlorophenyl)bicyclo[3.1.1]heptane-3-carboxamide]		107%	
CC1(C)C2CC1C(=O)C(C(=O)Nc1ccc(Cl)cc1)C2=O (stereo not shown) [Example 36, 6,6-Dimethyl-2,4-dioxo-N-(4-chlorophenyl)bicyclo[3.1.1]heptane-3-carboxamide]		125%	
O=C(Nc1cc(C(F)(F)F)cc(C(F)(F)F)c1)C1C(=O)C2CCC(CC2)C1=O (stereo not shown) [Example 37, N-[3,5-bis(trifluoromethyl)phenyl]-2,4-dioxobicyclo[3.2.2]nonane-3-carboxamide]		68%	
